Data published in US12435044B2, “Pyridazinone herbicides and pyridazinone intermediates used to prepare a herbicide” (FMC Corporation, priority 2018, dated 2025).

How the values were obtained:
Experiment in all cases: Test A pre-/postemergence greenhouse test
Assay type in all cases: in vivo
[1] = system: barnyardgrass (Echinochloa crus-galli)
Source text: (§1) Seeds of plant species selected from barnyardgrass (Echinochloa crus-galli), kochia (Kochia scoparia), ragweed (common ragweed, Ambrosia elatior), ryegrass, Italian (Lolium multiflorum), foxtail, giant (Setaria faberii), foxtail, green (Setaria viridis) and pigweed (Amaranthus retroflexus) were planted into a blend of loam soil and sand and treated preemergence with a directed soil spray using test chemicals formulated in a non-phytotoxic solvent mixture which included a surfactant.
(§2) At the same time, plants selected from these weed species and also wheat (Triticum aestivum), corn (Zea mays), blackgrass (Alopecurus myosuroides) and galium (catchweed bedstraw, Galium aparine) were planted in pots containing the same blend of loam soil and sand and treated with postemergence applications of test chemicals formulated in the same manner. Plants ranged in height from 2 to 10 cm and were in the one- to two-leaf stage for the postemergence treatment. Treated plants and untreated controls were maintained in a greenhouse for approximately 10 d, after which time all treated plants were compared to untreated controls and visually evaluated for injury. Plant response ratings, summarized in Table A, are based on a 0 to 100 scale where 0 is no effect and 100 is complete control. A dash (-) response means no test result.

kochia (Kochia scoparia) = system: kochia (Kochia scoparia)
Source text: as §1, §2

[2] = system: pigweed (Amaranthus retroflexus)
Source text: as §1, §2

[3] = system: ragweed (common ragweed, Ambrosia elatior)
Source text: as §1, §2

[4] = system: ryegrass, Italian (Lolium multiflorum)
Source text: as §1, §2

Measured: Plant response rating (0 to 100 scale)

Cc1ccc2ccc(F)cc2c1-c1c(O)c(Cl)nn(C)c1=O [Cpd. No. 21]
100: [1]; Preemergence, 125 g ai/ha | kochia (Kochia scoparia); Preemergence, 125 g ai/ha | [2]; Postemergence, 31 g ai/ha | [2]; Postemergence, 125 g ai/ha | [2]; Preemergence, 31 g ai/ha | [2]; Preemergence, 125 g ai/ha | [3]; Postemergence, 31 g ai/ha | [3]; Postemergence, 125 g ai/ha | [3]; Preemergence, 31 g ai/ha | [3]; Preemergence, 125 g ai/ha | [4]; Postemergence, 125 g ai/ha | [4]; Preemergence, 125 g ai/ha
80: [1]; Postemergence, 31 g ai/ha | kochia (Kochia scoparia); Postemergence, 31 g ai/ha | [4]; Preemergence, 31 g ai/ha
50: kochia (Kochia scoparia); Preemergence, 31 g ai/ha
90: [1]; Postemergence, 125 g ai/ha | [1]; Preemergence, 31 g ai/ha | kochia (Kochia scoparia); Postemergence, 125 g ai/ha | [4]; Postemergence, 31 g ai/ha
